Results on one compound are retold here after publication PMC5654082 (Malaria Journal, 2017).

Structures can show the parent of a compound that is named as a salt.

For the data set, the target named is T1, MATE1 (Homo sapiens, UniProt Q96FL8).
T1 sequence (Q96FL8 1-570): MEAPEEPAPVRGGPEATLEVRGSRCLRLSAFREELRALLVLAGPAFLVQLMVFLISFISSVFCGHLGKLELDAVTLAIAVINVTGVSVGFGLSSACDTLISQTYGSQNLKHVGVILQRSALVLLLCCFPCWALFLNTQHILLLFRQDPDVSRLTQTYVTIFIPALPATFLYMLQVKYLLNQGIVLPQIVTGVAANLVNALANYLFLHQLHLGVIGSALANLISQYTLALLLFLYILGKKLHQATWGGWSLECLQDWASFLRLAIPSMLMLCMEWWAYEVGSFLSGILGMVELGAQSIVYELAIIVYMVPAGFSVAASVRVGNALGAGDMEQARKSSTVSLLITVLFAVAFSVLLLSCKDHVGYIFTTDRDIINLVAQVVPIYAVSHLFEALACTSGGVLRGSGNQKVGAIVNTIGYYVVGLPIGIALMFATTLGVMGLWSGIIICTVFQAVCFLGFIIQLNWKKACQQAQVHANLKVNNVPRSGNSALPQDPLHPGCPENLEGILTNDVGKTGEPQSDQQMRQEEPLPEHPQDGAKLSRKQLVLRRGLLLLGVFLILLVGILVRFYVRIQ
In words: Export assay in HEK293 cells co-transduced with OCT1 and MATE1. More on the design: host or cells: HEK293, baculovirus transduction (CMV promoter), transient; co-transduced with human OCT1 in the export assay. As to conditions: cells expressing OCT1 and MATE1; 1 µM, 1 min, pH 7.4. Type of data set: cell-based. Here is the method: HEK293 cells were modified to transiently express (a combination of) human OCT1, OCT2, MATE1, MATE2-K, or eYFP. Briefly, cDNA of the respective genes was cloned downstream of a CMV promoter into a baculovirus, of which passage three was used to transduce HEK293 cells. These cells were seeded in poly-D-lysine coated 24- or 96-wells plates and grown in a 37 °C incubator at 5% CO2. Growth was initiated at ~ 25% confluency using 375 or 125 μL cell and complete medium (DMEM + GlutaMAX™-I supplemented with 10% fetal bovine serum) suspension per well, respectively. […]
Import and export of PG and cycloguanil (CG) was assessed by single and double transduced HEK293 cells. […] Significant reduction in uptake (i.e. export by MATEs) was determined using ln transformation and a one-way repeated measures ANOVA with Dunnet’s post test.
Anti-malarial concentration in the cell lysates was quantified using an LC–MS/MS system consisting of a UPLC, a binary solvent manager, a vacuum degasser and an autosampler, coupled to a Xevo TQ-S micro triple quadrupole mass spectrometer. […] Positive ion mode was used with selected reaction monitoring (SRM) for the quantitative analysis of AMO, ART, ATO, CQ, CG, DHA, LUM, MQ, PQ, PG, and QN. The peak area of the most abundant product ion was used for quantification.

In the case of `[H]/N=C(\N/C(=N/[H])Nc1ccc(Cl)cc1)NC(C)C` [Proguanil, proguanil hydrochloride], the “Uptake, percentage of eYFP control cells” value is 780 ± 70%.
